Laboratory results taken from the NIST ThermoML archive (doi:10.1016/j.jct.2012.11.007).
± gives the expanded uncertainty stated by the source.

Assay: mn = molality of the nth substance listed, in mol/kg
Conditions: 101 kPa, Liquid; for mass density: Vibrating tube method; for speed of sound: Pulse-echo method

CNC(N)=O [methylurea] + O
Conditions	mass density, 288.15 K [kg/m3]	mass density, 293.15 K [kg/m3]	mass density, 298.15 K [kg/m3]	mass density, 303.15 K [kg/m3]	mass density, 308.15 K [kg/m3]	speed of sound, 298.15 K [m/s]
m1 = 0.06094	999.856 ± 0.23	998.94 ± 0.23	997.762 ± 0.23	996.348 ± 0.23	994.718 ± 0.23	1499.1 ± 1.2
m1 = 0.1225	1000.62 ± 0.24	999.688 ± 0.24	998.491 ± 0.24	997.062 ± 0.24	995.418 ± 0.24	1501.5 ± 1.3
m1 = 0.1837	1001.38 ± 0.24	1000.42 ± 0.24	999.21 ± 0.24	997.766 ± 0.24	996.108 ± 0.24	1503.9 ± 1.3
m1 = 0.2452	1002.13 ± 0.24	1001.16 ± 0.24	999.928 ± 0.24	998.469 ± 0.24	996.799 ± 0.24	1506.3 ± 1.3
m1 = 0.3076	1002.89 ± 0.25	1001.9 ± 0.25	1000.66 ± 0.25	999.182 ± 0.25	997.498 ± 0.25	1508.7 ± 1.3

NC(N)=O [urea] + O
Conditions	mass density, 288.15 K [kg/m3]	mass density, 293.15 K [kg/m3]	mass density, 298.15 K [kg/m3]	mass density, 303.15 K [kg/m3]	mass density, 308.15 K [kg/m3]	speed of sound, 298.15 K [m/s]
m1 = 0.06521	1000.18 ± 0.23	999.268 ± 0.23	998.076 ± 0.23	996.664 ± 0.23	995.029 ± 0.23	1498.5 ± 1.2
m1 = 0.1233	1001.14 ± 0.23	1000.2 ± 0.23	998.994 ± 0.23	997.564 ± 0.23	995.915 ± 0.23	1500 ± 1.2
m1 = 0.1812	1002.09 ± 0.23	1001.13 ± 0.23	999.906 ± 0.23	998.455 ± 0.23	996.792 ± 0.23	1501.5 ± 1.2
m1 = 0.2403	1003.05 ± 0.23	1002.07 ± 0.23	1000.83 ± 0.23	999.361 ± 0.23	997.684 ± 0.23	1503.1 ± 1.2
m1 = 0.3004	1004.03 ± 0.23	1003.02 ± 0.23	1001.76 ± 0.23	1000.28 ± 0.23	998.584 ± 0.23	1504.6 ± 1.2

CNC(=O)NC [1,3-dimethylurea] + O
Conditions	mass density, 288.15 K [kg/m3]	mass density, 293.15 K [kg/m3]	mass density, 298.15 K [kg/m3]	mass density, 303.15 K [kg/m3]	mass density, 308.15 K [kg/m3]	speed of sound, 298.15 K [m/s]
m1 = 0.06095	999.619 ± 0.23	998.707 ± 0.23	997.534 ± 0.23	996.121 ± 0.23	994.493 ± 0.23	1499.8 ± 1.2
m1 = 0.1226	1000.15 ± 0.23	999.227 ± 0.23	998.04 ± 0.23	996.616 ± 0.23	994.975 ± 0.23	1503 ± 1.2
m1 = 0.1846	1000.69 ± 0.23	999.75 ± 0.23	998.549 ± 0.23	997.113 ± 0.23	995.461 ± 0.23	1506.1 ± 1.2
m1 = 0.247	1001.24 ± 0.23	1000.28 ± 0.23	999.063 ± 0.23	997.613 ± 0.23	995.947 ± 0.23	1509.2 ± 1.2
m1 = 0.3099	1001.79 ± 0.23	1000.82 ± 0.23	999.585 ± 0.23	998.121 ± 0.23	996.442 ± 0.23	1512.3 ± 1.2

CCNC(N)=O [ethylurea] + O
Conditions	mass density, 288.15 K [kg/m3]	mass density, 293.15 K [kg/m3]	mass density, 298.15 K [kg/m3]	mass density, 303.15 K [kg/m3]	mass density, 308.15 K [kg/m3]	speed of sound, 298.15 K [m/s]
m1 = 0.06285	999.725 ± 0.23	998.807 ± 0.23	997.629 ± 0.23	996.213 ± 0.23	994.58 ± 0.23	1500 ± 1.2
m1 = 0.1203	1000.29 ± 0.24	999.358 ± 0.24	998.163 ± 0.24	996.73 ± 0.24	995.083 ± 0.24	1503.1 ± 1.3
m1 = 0.179	1000.88 ± 0.24	999.919 ± 0.24	998.707 ± 0.24	997.258 ± 0.24	995.602 ± 0.24	1506.2 ± 1.3
m1 = 0.2358	1001.44 ± 0.25	1000.47 ± 0.25	999.234 ± 0.24	997.769 ± 0.24	996.09 ± 0.24	1509.1 ± 1.3
m1 = 0.3016	1002.09 ± 0.25	1001.09 ± 0.25	999.839 ± 0.25	998.357 ± 0.25	996.661 ± 0.25	1512.5 ± 1.3

CCNC(=O)NCC [1,3-diethylurea] + O
Conditions	mass density, 288.15 K [kg/m3]	mass density, 293.15 K [kg/m3]	mass density, 298.15 K [kg/m3]	mass density, 303.15 K [kg/m3]	mass density, 308.15 K [kg/m3]	speed of sound, 298.15 K [m/s]
m1 = 0.06282	999.298 ± 0.23	998.383 ± 0.23	997.207 ± 0.23	995.788 ± 0.23	994.155 ± 0.23	1501.8 ± 1.2
m1 = 0.1269	999.524 ± 0.24	998.589 ± 0.24	997.392 ± 0.24	995.959 ± 0.24	994.306 ± 0.24	1507 ± 1.3
m1 = 0.1909	999.768 ± 0.25	998.812 ± 0.25	997.588 ± 0.25	996.14 ± 0.25	994.468 ± 0.25	1512.1 ± 1.3
m1 = 0.2561	1000.03 ± 0.25	999.043 ± 0.25	997.793 ± 0.25	996.313 ± 0.25	994.634 ± 0.25	1517.2 ± 1.3
m1 = 0.3224	1000.31 ± 0.26	999.289 ± 0.26	998.012 ± 0.26	996.517 ± 0.26	994.82 ± 0.26	1522.3 ± 1.3

CCCCNC(N)=O [N-butylurea] + O
Conditions	mass density, 288.15 K [kg/m3]	mass density, 293.15 K [kg/m3]	mass density, 298.15 K [kg/m3]	mass density, 303.15 K [kg/m3]	mass density, 308.15 K [kg/m3]	speed of sound, 298.15 K [m/s]
m1 = 0.05745	999.477 ± 0.23	998.55 ± 0.23	997.366 ± 0.23	995.939 ± 0.23	994.3 ± 0.23	1501.5 ± 1.2
m1 = 0.1154	999.871 ± 0.23	998.918 ± 0.23	997.706 ± 0.23	996.251 ± 0.23	994.591 ± 0.23	1506.3 ± 1.2
m1 = 0.173	1000.27 ± 0.23	999.281 ± 0.23	998.053 ± 0.23	996.57 ± 0.23	994.872 ± 0.23	1511.2 ± 1.2
m1 = 0.2305	1000.68 ± 0.23	999.67 ± 0.23	998.404 ± 0.23	996.892 ± 0.23	995.175 ± 0.23	1516 ± 1.2
m1 = 0.2873	1001.11 ± 0.23	1000.06 ± 0.23	998.771 ± 0.23	997.219 ± 0.23	995.477 ± 0.23	1520.9 ± 1.2
